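All cell lines were grown in 96-well plates and treated with compound for 48 hours. TGI: concentration producing complete growth inhibition.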
Legend:
Experiment in all cases: inhibition of tumour cell growth, NCI panel, 48 h
[1] = test system: CCRF-CEM leukemia
[2] = test system: BT-549 breast
[3] = test system: SF-268 CNS
[4] = test system: SK-MEL-2 melanoma
[5] = test system: HCT-15 colon
[6] = test system: A549 NSCLC
[7] = test system: MDA-MB-435
[8] = test system: M14 melanoma
[9] = test system: COLO 205 colon
[10] = test system: SNB-19 CNS
[11] = test system: CAKI-1 renal
[12] = test system: SK-MEL-5 melanoma
[13] = test system: TK-10 renal
[14] = test system: SK-OV-3 ovarian

`CC(=O)Oc1ccccc1-c1cc2ccccc2oc1=O` showed a TGI [1] greater than 100 µM, a TGI [2] greater than 100 µM and a TGI [3] greater than 100 µM. For the same compound, the TGI [4] was greater than 100 µM, the TGI [5] was greater than 100 µM and the TGI [6] was greater than 100 µM. The TGI [7] was greater than 100 µM, the TGI [8] was greater than 100 µM and the TGI [9] was greater than 100 µM. For the same compound, the TGI [10] was greater than 100 µM.
Compound `CO[C@H]1[C@@H](O)[C@@H](C)O[C@@H](O[C@H]2CC[C@@]3(C)[C@H](CC[C@@H]4[C@@H]3CC[C@]3(C)[C@@H](C5=CC(=O)OC5)[C@@H](OC(C)=O)C[C@]43O)C2)[C@@H]1O` has a TGI [2] of 0.161 µM, a TGI [11] of 0.0719 µM and a TGI [12] of 0.201 µM. For the same compound, the TGI [3] was 0.0855 µM, the TGI [13] was 0.052 µM and the TGI [14] was 0.188 µM. The TGI [4] was 0.345 µM, the TGI [5] was 0.292 µM and the TGI [6] was 0.0241 µM. For the same compound, the TGI [7] was 0.407 µM, the TGI [8] was 0.189 µM and the TGI [9] was 0.447 µM. For the same compound, the TGI [10] was 0.507 µM.
`N#Cc1sc2nc(/C=C3/C=CC=CC3=O)c(O)n2c1N` gave a TGI [1] of 74.9 µM, a TGI [11] greater than 100 µM and a TGI [12] greater than 100 µM. It also gave a TGI [3] greater than 100 µM, a TGI [13] greater than 100 µM and a TGI [14] greater than 100 µM. For the same compound, the TGI [4] was greater than 100 µM, the TGI [5] was greater than 100 µM and the TGI [6] was greater than 100 µM. It also gave a TGI [7] greater than 100 µM, a TGI [8] greater than 100 µM and a TGI [9] greater than 100 µM. It also gave a TGI [10] greater than 100 µM.
For `O=c1cc(-c2ccccc2)[nH]c2cc3c(cc12)OCO3`, the TGI [1] was greater than 100 µM, the TGI [2] was greater than 100 µM and the TGI [12] was 51.3 µM. The TGI [3] was greater than 17.5 µM, the TGI [13] was greater than 94 µM and the TGI [14] was 26 µM. The TGI [4] was greater than 93.2 µM, the TGI [5] was greater than 100 µM and the TGI [6] was greater than 100 µM. The TGI [8] was greater than 80.2 µM, the TGI [9] was 65.7 µM and the TGI [10] was greater than 100 µM.
`COc1ccc(C[N+]23C(CC[C@H]2c2ccccc2)CC[C@H]3c2ccccc2)cc1` (some centres undefined) gave a TGI [1] greater than 100 µM, a TGI [11] greater than 100 µM and a TGI [12] of 15.7 µM. For the same compound, the TGI [3] was greater than 100 µM, the TGI [13] was greater than 100 µM and the TGI [14] was 87.7 µM. It also gave a TGI [4] of 43 µM, a TGI [6] greater than 100 µM and a TGI [7] of 26.4 µM. The TGI [8] was 42.4 µM, the TGI [9] was 21.4 µM and the TGI [10] was greater than 100 µM.
In the case of `CCN(CC)CCn1nc(N)c2nc3cc(Cl)ccc3nc21`, the TGI [2] is reported as greater than 100 µM, the TGI [11] is reported as greater than 100 µM and the TGI [12] is reported as 74.1 µM. It also gave a TGI [3] greater than 100 µM, a TGI [13] greater than 100 µM and a TGI [14] greater than 100 µM. The TGI [4] was greater than 100 µM, the TGI [5] was greater than 100 µM and the TGI [6] was greater than 100 µM. It also gave a TGI [7] greater than 100 µM, a TGI [8] greater than 100 µM and a TGI [9] greater than 100 µM. The TGI [10] was greater than 100 µM.
`CCOC(=O)C1=C(Nc2cccc(OC)c2)OCC1=O` showed a TGI [1] greater than 100 µM, a TGI [11] greater than 100 µM and a TGI [12] greater than 100 µM. The TGI [3] was greater than 100 µM, the TGI [13] was greater than 100 µM and the TGI [14] was greater than 100 µM. For the same compound, the TGI [4] was greater than 100 µM, the TGI [5] was greater than 100 µM and the TGI [7] was greater than 100 µM. It also gave a TGI [8] greater than 100 µM, a TGI [9] greater than 100 µM and a TGI [10] greater than 100 µM.
For `O=C1C(Cl)C(c2ccccc2)N1n1cnc2ccccc2c1=O` (centres undefined), the TGI [1] was greater than 100 µM, the TGI [11] was greater than 100 µM and the TGI [12] was greater than 100 µM. The TGI [3] was greater than 100 µM, the TGI [13] was greater than 100 µM and the TGI [14] was greater than 100 µM. For the same compound, the TGI [4] was greater than 100 µM, the TGI [5] was greater than 100 µM and the TGI [6] was greater than 100 µM. The TGI [8] was greater than 100 µM, the TGI [9] was greater than 100 µM and the TGI [10] was greater than 100 µM.
Compound `CC(C)CC1[C@@H](OCc2ccccc2)COS(=O)N1Cc1ccccc1` (some centres undefined) has a TGI [1] greater than 100 µM, a TGI [12] greater than 100 µM and a TGI [3] greater than 100 µM. The TGI [13] was greater than 100 µM, the TGI [14] was greater than 100 µM and the TGI [4] was greater than 100 µM. The TGI [5] was greater than 100 µM, the TGI [6] was greater than 100 µM and the TGI [7] was greater than 100 µM. The TGI [8] was greater than 100 µM, the TGI [9] was greater than 100 µM and the TGI [10] was greater than 100 µM.

— PubChem BioAssay (NCI)
